Measurements taken from the supplement of paper PMC10733146.

Legend:
Experiment in all cases: viability relative to DMSO control (fraction); higher = less drug effect (more viable cells)
Settings in all cases: 48 h
[1] = test system: primary AML patient cells (S002)
Summary of the method: (§1)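 Using 384-well plates with compounds already plated at five concentrations, one well per concentration, 4 × 10^4 primary mononuclear tumour cells were added per well. Cells were Ficoll-isolated from blood or bone marrow or came from processed lymph node, fresh or cryopreserved. They were kept for 48 h at 37 °C and 5% CO2 in RPMI-1640 supplemented with penicillin/streptomycin, L-glutamine and human serum, and viability was read as CellTiter-Glo luminescence relative to the median of 16 inner DMSO wells.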

[2] = test system: primary AML patient cells (S006)
Summary of the method: as §1

[3] = test system: primary AML patient cells (S011)
Summary of the method: as §1

[4] = test system: primary AML patient cells (S012)
Summary of the method: as §1

[5] = test system: primary AML patient cells (S017)
Summary of the method: as §1

[6] = test system: primary AML patient cells (S019)
Summary of the method: as §1

[7] = test system: primary AML patient cells (S021)
Summary of the method: as §1

[8] = test system: primary AML patient cells (S025)
Summary of the method: as §1

[9] = test system: primary AML patient cells (S037)
Summary of the method: as §1

[10] = test system: primary AML patient cells (S081)
Summary of the method: as §1

[11] = test system: primary AML patient cells (S085)
Summary of the method: as §1

[12] = test system: primary AML patient cells (S089)
Summary of the method: as §1

[13] = test system: primary AML patient cells (S091)
Summary of the method: as §1

[14] = test system: primary CLL patient cells (S043)
Summary of the method: as §1

With CC(C)(C)C[C@@H]1N[C@@H](C(=O)N[C@H]2CC[C@H](O)CC2)[C@H](c2cccc(Cl)c2F)[C@]12C(=O)Nc1cc(Cl)ccc12 [MI-773] as the molecule, how does the viability ([1]; 0.008 µM) read?
The viability was 0.994.

And the viability ([1]; 0.04 µM)?
Its viability is 0.926.

And the viability ([1]; 0.2 µM)?
The viability was 0.688.

What about the viability ([1]; 1 µM) of the same molecule?
Its viability is 0.413.

And the viability ([1]; 5 µM)?
The viability was 0.253.

And the viability ([2]; 0.008 µM)?
Its viability is 0.915.

And the viability ([2]; 0.04 µM)?
Its viability is 0.761.

What about the viability ([2]; 0.2 µM) of the same molecule?
Its viability is 0.481.

And the viability ([2]; 1 µM)?
Its viability is 0.194.

What about the viability ([2]; 5 µM) of the same molecule?
Its viability is 0.0491.

What about the viability ([3]; 0.008 µM) of the same molecule?
Its viability is 0.937.

What about the viability ([3]; 0.04 µM) of the same molecule?
Its viability is 0.938.

What about the viability ([3]; 0.2 µM) of the same molecule?
Its viability is 0.7.

And the viability ([3]; 1 µM)?
Its viability is 0.465.

And the viability ([3]; 5 µM)?
Its viability is 0.218.

And the viability ([4]; 0.008 µM)?
The viability was 0.96.

What about the viability ([4]; 0.04 µM) of the same molecule?
The viability was 0.971.

What about the viability ([4]; 0.2 µM) of the same molecule?
The viability was 0.937.

And the viability ([4]; 1 µM)?
Its viability is 0.976.

What about the viability ([4]; 5 µM) of the same molecule?
The viability was 1.02.

And the viability ([5]; 0.008 µM)?
The viability was 1.06.

What about the viability ([5]; 0.04 µM) of the same molecule?
Its viability is 0.896.

What about the viability ([5]; 0.2 µM) of the same molecule?
The viability was 0.806.

What about the viability ([5]; 1 µM) of the same molecule?
Its viability is 0.877.

What about the viability ([5]; 5 µM) of the same molecule?
The viability was 0.834.

And the viability ([6]; 0.008 µM)?
Its viability is 1.34.

And the viability ([6]; 0.04 µM)?
The viability was 1.23.

What about the viability ([6]; 0.2 µM) of the same molecule?
Its viability is 1.19.

And the viability ([6]; 1 µM)?
Its viability is 0.689.

What about the viability ([6]; 5 µM) of the same molecule?
Its viability is 0.343.

And the viability ([7]; 0.008 µM)?
The viability was 1.

What about the viability ([7]; 0.04 µM) of the same molecule?
Its viability is 0.966.

What about the viability ([7]; 0.2 µM) of the same molecule?
Its viability is 0.648.

What about the viability ([7]; 1 µM) of the same molecule?
Its viability is 0.46.

And the viability ([7]; 5 µM)?
The viability was 0.215.

What about the viability ([8]; 0.008 µM) of the same molecule?
Its viability is 1.12.

And the viability ([8]; 0.04 µM)?
Its viability is 0.901.

And the viability ([8]; 0.2 µM)?
Its viability is 0.818.

And the viability ([8]; 1 µM)?
The viability was 0.421.

What about the viability ([8]; 5 µM) of the same molecule?
The viability was 0.202.

What about the viability ([9]; 0.008 µM) of the same molecule?
Its viability is 1.04.

And the viability ([9]; 0.04 µM)?
Its viability is 1.01.

And the viability ([9]; 0.2 µM)?
The viability was 1.01.

And the viability ([9]; 1 µM)?
The viability was 0.742.

What about the viability ([9]; 5 µM) of the same molecule?
The viability was 0.453.

What about the viability ([10]; 0.008 µM) of the same molecule?
The viability was 1.

What about the viability ([10]; 0.04 µM) of the same molecule?
The viability was 1.05.

And the viability ([10]; 0.2 µM)?
Its viability is 1.11.

What about the viability ([10]; 1 µM) of the same molecule?
The viability was 1.02.

What about the viability ([10]; 5 µM) of the same molecule?
The viability was 1.12.

What about the viability ([11]; 0.008 µM) of the same molecule?
Its viability is 1.08.

What about the viability ([11]; 0.04 µM) of the same molecule?
Its viability is 0.972.

What about the viability ([11]; 0.2 µM) of the same molecule?
The viability was 0.849.

What about the viability ([11]; 1 µM) of the same molecule?
The viability was 0.481.

And the viability ([11]; 5 µM)?
Its viability is 0.204.

What about the viability ([12]; 0.008 µM) of the same molecule?
Its viability is 0.993.

And the viability ([12]; 0.04 µM)?
Its viability is 0.973.

And the viability ([12]; 0.2 µM)?
The viability was 0.938.

What about the viability ([12]; 1 µM) of the same molecule?
The viability was 0.842.

What about the viability ([12]; 5 µM) of the same molecule?
Its viability is 0.493.

What about the viability ([13]; 0.008 µM) of the same molecule?
Its viability is 0.979.

And the viability ([13]; 0.04 µM)?
The viability was 0.781.

What about the viability ([13]; 0.2 µM) of the same molecule?
The viability was 0.587.

What about the viability ([13]; 1 µM) of the same molecule?
The viability was 0.428.

And the viability ([13]; 5 µM)?
Its viability is 0.321.

And the viability ([14]; 0.008 µM)?
Its viability is 1.05.

And the viability ([14]; 0.04 µM)?
The viability was 0.949.

And the viability ([14]; 0.2 µM)?
Its viability is 1.

What about the viability ([14]; 1 µM) of the same molecule?
Its viability is 0.879.

What about the viability ([14]; 5 µM) of the same molecule?
The viability was 0.441.
